From the NIST ThermoML archive (doi:10.1016/j.jct.2018.02.003)
Values joined by “and” are separate entries in the source; they are usually repeats but may differ in a detail not shown here. Identical values can stand only once. ± gives the expanded uncertainty stated by the source.

Settings: Liquid; for speed of sound: Frequency=3 MHz, Single path-length method; for mass density: Vibrating tube method

COC(F)(C(F)(F)C(F)(F)F)C(F)(C(F)(F)F)C(F)(F)F (stereo not drawn)
Settings	mass density	speed of sound [m/s]
293.15 K, 100 kPa	1668.2 ± 0.8 kg/m3 and 1668.43 ± 0.98 kg/m3	644.5 ± 1.1
293.15 K, 1000 kPa	1670.8 ± 0.8 kg/m3	–
293.15 K, 5000 kPa	1681.9 ± 0.9 kg/m3	–
293.15 K, 10000 kPa	1694.8 ± 1 kg/m3	–
293.15 K, 15000 kPa	1706.6 ± 1.1 kg/m3	–
293.15 K, 20000 kPa	1717.6 ± 1.2 kg/m3	–
293.15 K, 25000 kPa	1727.9 ± 1.3 kg/m3	–
293.15 K, 30000 kPa	1737.7 ± 1.4 kg/m3	–
293.15 K, 35000 kPa	1746.9 ± 1.5 kg/m3	–
293.15 K, 40000 kPa	1755.6 ± 1.7 kg/m3	–
293.15 K, 45000 kPa	1764 ± 1.8 kg/m3	–
293.15 K, 50000 kPa	1772 ± 2 kg/m3	–
293.15 K, 55000 kPa	1779.7 ± 2.2 kg/m3	–
293.15 K, 60000 kPa	1787 ± 2.3 kg/m3	–
293.15 K, 65000 kPa	1794.1 ± 2.5 kg/m3	–
293.15 K, 70000 kPa	1800.9 ± 2.7 kg/m3	–
293.15 K, 80000 kPa	1814 ± 3 kg/m3	–
293.15 K, 90000 kPa	1826.3 ± 3.4 kg/m3	–
293.15 K, 100000 kPa	1837.8 ± 3.8 kg/m3	–
293.15 K, 110000 kPa	1848.8 ± 4.1 kg/m3	–
293.15 K, 120000 kPa	1859.3 ± 4.5 kg/m3	–
293.15 K, 130000 kPa	1869.3 ± 4.9 kg/m3	–
293.15 K, 140000 kPa	1878.8 ± 5.3 kg/m3	–
298.15 K, 100 kPa	1656.7 ± 0.8 kg/m3 and 1656.79 ± 0.98 kg/m3	629.44 ± 1.1
298.15 K, 1000 kPa	1659.4 ± 0.8 kg/m3	–
298.15 K, 5000 kPa	1671 ± 0.9 kg/m3	–
298.15 K, 10000 kPa	1684.4 ± 1 kg/m3	–
298.15 K, 15000 kPa	1696.6 ± 1 kg/m3	–
298.15 K, 20000 kPa	1708 ± 1.2 kg/m3	–
298.15 K, 25000 kPa	1718.6 ± 1.3 kg/m3	–
298.15 K, 30000 kPa	1728.6 ± 1.4 kg/m3	–
298.15 K, 35000 kPa	1738.1 ± 1.5 kg/m3	–
298.15 K, 40000 kPa	1747.1 ± 1.6 kg/m3	–
298.15 K, 45000 kPa	1755.6 ± 1.8 kg/m3	–
298.15 K, 50000 kPa	1763.8 ± 2 kg/m3	–
298.15 K, 55000 kPa	1771.7 ± 2.1 kg/m3	–
298.15 K, 60000 kPa	1779.3 ± 2.3 kg/m3	–
298.15 K, 65000 kPa	1786.5 ± 2.5 kg/m3	–
298.15 K, 70000 kPa	1793.4 ± 2.6 kg/m3	–
298.15 K, 80000 kPa	1806.7 ± 3 kg/m3	–
298.15 K, 90000 kPa	1819.1 ± 3.4 kg/m3	–
298.15 K, 100000 kPa	1831 ± 3.7 kg/m3	–
298.15 K, 110000 kPa	1842 ± 4.1 kg/m3	–
298.15 K, 120000 kPa	1852.7 ± 4.5 kg/m3	–
298.15 K, 130000 kPa	1862.8 ± 4.9 kg/m3	–
298.15 K, 140000 kPa	1872.5 ± 5.3 kg/m3	–
303.15 K, 100 kPa	1645.11 ± 0.98 kg/m3	614.76 ± 1.1
313.15 K, 100 kPa	1621.3 ± 0.8 kg/m3 and 1621.41 ± 0.97 kg/m3	585.65 ± 1.1
313.15 K, 1000 kPa	1624.5 ± 0.8 kg/m3	–
313.15 K, 5000 kPa	1637.7 ± 0.9 kg/m3	–
313.15 K, 10000 kPa	1652.7 ± 0.9 kg/m3	–
313.15 K, 15000 kPa	1666.3 ± 1 kg/m3	–
313.15 K, 20000 kPa	1678.8 ± 1.1 kg/m3	–
313.15 K, 25000 kPa	1690.4 ± 1.2 kg/m3	–
313.15 K, 30000 kPa	1701.4 ± 1.4 kg/m3	–
313.15 K, 35000 kPa	1711.6 ± 1.5 kg/m3	–
313.15 K, 40000 kPa	1721.2 ± 1.6 kg/m3	–
313.15 K, 45000 kPa	1730.5 ± 1.7 kg/m3	–
313.15 K, 50000 kPa	1739.2 ± 1.9 kg/m3	–
313.15 K, 55000 kPa	1747.6 ± 2.1 kg/m3	–
313.15 K, 60000 kPa	1755.5 ± 2.2 kg/m3	–
313.15 K, 65000 kPa	1763.3 ± 2.4 kg/m3	–
313.15 K, 70000 kPa	1770.7 ± 2.6 kg/m3	–
313.15 K, 80000 kPa	1784.8 ± 2.9 kg/m3	–
313.15 K, 90000 kPa	1797.9 ± 3.3 kg/m3	–
313.15 K, 100000 kPa	1810.2 ± 3.6 kg/m3	–
313.15 K, 110000 kPa	1822 ± 4 kg/m3	–
313.15 K, 120000 kPa	1832.9 ± 4.4 kg/m3	–
313.15 K, 130000 kPa	1843.5 ± 4.8 kg/m3	–
313.15 K, 140000 kPa	1853.5 ± 5.2 kg/m3	–
323.15 K, 100 kPa	1597.04 ± 0.97 kg/m3	557.04 ± 1.1
333.15 K, 100 kPa	1572.7 ± 0.8 kg/m3 and 1572.8 ± 0.96 kg/m3	529.01 ± 1.1
333.15 K, 1000 kPa	1576.5 ± 0.8 kg/m3	–
333.15 K, 5000 kPa	1592.3 ± 0.9 kg/m3	–
333.15 K, 10000 kPa	1609.9 ± 0.9 kg/m3	–
333.15 K, 15000 kPa	1625.7 ± 1 kg/m3	–
333.15 K, 20000 kPa	1639.8 ± 1.1 kg/m3	–
